Source: patent US7109193B2, “Tricyclic diazepines tocolytic oxytocin receptor antagonists” (Wyeth, priority 2001, dated 2006)

Each compound was assayed against T1, human oxytocin receptor (Homo sapiens, UniProt P30559) (assay: Oxytocin binding in Chinese Hamster Ovary cell membranes expressing human oxytocin receptors). Conditions: 100 nM, CHO cell membranes, [3H]oxytocin, values without parentheses, read-out: OT % inhibition @ 100% nM.
T1 construct: host or cells: CHO cells (pcDNA3.1 vector)
T1 sequence (P30559 1-389): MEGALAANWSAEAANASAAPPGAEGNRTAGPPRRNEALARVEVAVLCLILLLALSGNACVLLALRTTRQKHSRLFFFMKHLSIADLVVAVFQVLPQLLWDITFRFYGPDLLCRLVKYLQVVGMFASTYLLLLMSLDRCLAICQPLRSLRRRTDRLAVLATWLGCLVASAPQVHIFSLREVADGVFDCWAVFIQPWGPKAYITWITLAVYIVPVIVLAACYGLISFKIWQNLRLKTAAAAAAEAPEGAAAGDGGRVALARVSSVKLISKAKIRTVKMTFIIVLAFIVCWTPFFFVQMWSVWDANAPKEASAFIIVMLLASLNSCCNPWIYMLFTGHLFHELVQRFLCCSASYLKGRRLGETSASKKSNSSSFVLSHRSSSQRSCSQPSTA

**Q.** With `Cc1cc(C(=O)N2Cc3ccc(C(=O)N[C@H]4CN5CCC4CC5)n3Cc3ccccc32)ccc1-c1ccccc1C(F)(F)F` [Example 301, N-[(3R)-1-Azabicyclo[2.2.2]oct-3-yl]-10-{[2-methyl-2′-(trifluoromethyl)[1,1′-biphenyl]-4-yl]carbonyl}-10,11-dihydro-5H-pyrrolo[2,1-c][1,4]benzodiazepine-3-carboxamide] as the compound, how does the inhibition at 0.1 µM read?
**A.** The inhibition at 0.1 µM was 82%.

**Q.** `COc1cccc(-c2cc(OC)c(C(=O)N3Cc4ccc(C(=O)N5CCCN(C)CC5)n4Cc4ccccc43)cc2Cl)c1` [Example 67, {10-[(6-Chloro-3,3′-dimethoxy[1,1′-biphenyl]-4-yl)carbonyl]-10,11-dihydro-5H-pyrrolo[2,1-c][1,4]benzodiazepin-3-yl}(4-methyl-1,4-diazepan-1-yl)methanone] was tested. Which inhibition at 0.1 µM did it give?
**A.** The inhibition at 0.1 µM was 79%.

**Q.** With `COc1cccc(-c2ccc(C(=O)N3Cc4ccc(C(=O)NCCCN(C)C)n4Cc4ccccc43)cc2C)c1` [Example 74, N-[3-(Dimethylamino)propyl]-10-[(3′-methoxy-2-methyl[1,1′-biphenyl]-4-yl)carbonyl]-10,11-dihydro-5H-pyrrolo[2,1-c][1,4]benzodiazepine-3-carboxamide] as the compound, how does the inhibition at 0.1 µM read?
**A.** The inhibition at 0.1 µM was 45%.

**Q.** How did the inhibition at 0.1 µM turn out when `Cc1cc(C(=O)N2Cc3ccc(C(=O)N[C@@H](Cc4c[nH]cn4)C(N)=O)n3Cc3ccccc32)ccc1-c1ccccc1C(F)(F)F` [Example 284, N-[(1S)-2-Amino-1-(1H-imidazol-4-ylmethyl)-2-oxoethyl]-10-{[2-methyl-2′-(trifluoromethyl)[1,1′-biphenyl]-4-yl]carbonyl}-10,11-dihydro-5H-pyrrolo[2,1-c][1,4]benzodiazepine-3-carboxamide] was run?
**A.** The inhibition at 0.1 µM was 87%.

**Q.** For `Cc1cc(C(=O)N2Cc3ccc(C(=O)N4CCN(CCCN(C)C)CC4)n3Cc3ccccc32)ccc1-c1ccccc1C(F)(F)F` [Example 257, {10-[(2-Methyl-2′-trifluoromethyl-[1,1′-biphenyl]-4-yl)carbonyl]-10,11-dihydro-5H-pyrrolo[2,1-c][1,4]benzodiazepin-3-yl}{4-[3-(dimethylamino)propyl]-1-piperazinyl}-methanone], which inhibition at 0.1 µM is on record?
**A.** Its inhibition at 0.1 µM is 85%.

**Q.** Which inhibition at 0.1 µM does the source give for `Cc1ccccc1-c1ccc(C(=O)N2Cc3ccc(C(=O)N4CCCN(C)CC4)n3Cc3ccccc32)cc1` [Example 65, {10-[(2′-Methyl[1,1′-biphenyl]-4-yl)carbonyl]-10,11-dihydro-5H-pyrrolo[2,1-c][1,4]benzodiazepin-3-yl}(4-methyl-1,4-diazepan-1-yl)methanone] here?
**A.** The inhibition at 0.1 µM was 68%.

**Q.** With `COc1ccccc1-c1ccc(C(=O)N2Cc3ccc(C(=O)N[C@@H](Cc4c[nH]cn4)C(N)=O)n3Cc3ccccc32)cc1OC` [Example 286, N-[(1S)-2-Amino-1-(1H-imidazol-4-ylmethyl)-2-oxoethyl]-10-[(2,2′-dimethoxy[1,1′-biphenyl]-4-yl)carbonyl]-10,11-dihydro-5H-pyrrolo[2,1-c][1,4]benzodiazepine-3-carboxamide] as the compound, how does the inhibition at 0.1 µM read?
**A.** The inhibition at 0.1 µM was 86%.

**Q.** `COc1cc(C(=O)N2Cc3ccc(C(=O)N4CCN(C(C)C)CC4)n3Cc3ccccc32)ccc1-n1c(C)ccc1C` [Example 319, {10-[4-(2,5-Dimethyl-1H-pyrrol-1-yl)-3-methoxybenzoyl]-10,11-dihydro-5H-pyrrolo[2,1-c][1,4]benzodiazepin-3-yl}(4-isopropyl-1-piperazinyl)methanone] was tested. Which inhibition at 0.1 µM did it give?
**A.** Its inhibition at 0.1 µM is 22%.

**Q.** `COc1cc(C(=O)N2Cc3ccc(C(=O)N4CCN(CCCN(C)C)CC4)n3Cc3ccccc32)ccc1-c1cccc2ccccc12` [Example 253, {4-[3-(Dimethylamino)propyl]-1-piperazinyl}{10-[3-methoxy-4-(1-naphthyl)benzoyl]-10,11-dihydro-5H-pyrrolo[2,1-c][1,4]benzodiazepin-3-yl}methanone] was tested. Which inhibition at 0.1 µM did it give?
**A.** The inhibition at 0.1 µM was 71%.

**Q.** With `CN1CCCN(C(=O)c2ccc3n2Cc2ccccc2N(C(=O)c2ccc(-c4cccc5ccccc45)cc2Cl)C3)CC1` [Example 71, {10-[2-Chloro-4-(1-naphthyl)benzoyl]-10,11-dihydro-5H-pyrrolo[2,1-c][1,4]benzodiazepin-3-yl}(4-methyl-1,4-diazepan-1-yl)methanone] as the compound, how does the inhibition at 0.1 µM read?
**A.** The inhibition at 0.1 µM was 25%.

**Q.** `COc1ccccc1-c1ccc(C(=O)N2Cc3ccc(C(=O)NCCCN(C)C)n3Cc3ccccc32)cc1` [Example 75, N-[3-(Dimethylamino)propyl]-10-[(2′-methoxy[1,1′-biphenyl]-4-yl)carbonyl]-10,11-dihydro-5H-pyrrolo[2,1-c][1,4]benzodiazepine-3-carboxamide] was tested. Which inhibition at 0.1 µM did it give?
**A.** The inhibition at 0.1 µM was 66%.

**Q.** Which inhibition at 0.1 µM does the source give for `COc1ccccc1-c1ccc(C(=O)N2Cc3ccc(C(=O)N[C@@H](Cc4c[nH]cn4)C(N)=O)n3Cc3ccccc32)cc1C` [Example 288, N-[(1S)-2-Amino-1-(1H-imidazol-4-ylmethyl)-2-oxoethyl]-10-[(2′-methoxy-2-methyl[1,1′-biphenyl]4-yl)carbonyl]-10,11-dihydro-5H-pyrrolo[2,1-c][1,4]benzodiazepine-3-carboxamide] here?
**A.** Its inhibition at 0.1 µM is 95%.

**Q.** For `COc1ccccc1-c1ccc(C(=O)N2Cc3ccc(C(=O)N4CCN(C)CC4)n3Cc3ccccc32)cc1OC` [Example 56, {10-[(2,2′-Dimethoxy[1,1′-biphenyl]-4-yl)carbonyl]-10,11-dihydro-5H-pyrrolo[2,1-c][1,4]benzodiazepin-3-yl}(4-methyl-1-piperazinyl)methanone], which inhibition at 0.1 µM is on record?
**A.** The inhibition at 0.1 µM was 68%.

**Q.** With `COc1cc(C(=O)N2Cc3ccc(C(=O)NCCN4CCCCC4)n3Cc3ccccc32)ccc1-n1c(C)ccc1C` [Example 314, 10-[4-(2,5-Dimethyl-1H-pyrrol-1-yl)-3-methoxybenzoyl]-N-[2-(1-piperidinyl)ethyl]-10,11-dihydro-5H-pyrrolo[2,1-c][1,4]benzodiazepine-3-carboxamide] as the compound, how does the inhibition at 0.1 µM read?
**A.** Its inhibition at 0.1 µM is 19%.

**Q.** For `Cc1ccccc1-c1ccc(C(=O)N2Cc3ccc(C(=O)N4CCN(C)CC4)n3Cc3ccccc32)cc1` [Example 52, {10-[(2′-Methyl[1,1′-biphenyl]-4-yl)carbonyl]-10,11-dihydro-5H-pyrrolo[2,1-c][1,4]benzodiazepin-3-yl}(4-methyl-1-piperazinyl)methanone], which inhibition at 0.1 µM is on record?
**A.** Its inhibition at 0.1 µM is 86%.

**Q.** For `COc1cc(-c2ccccc2C)c(Cl)cc1C(=O)N1Cc2ccc(C(=O)N[C@@H]3CN4CCC3CC4)n2Cc2ccccc21` [Example 297, N-[(3S)-1-Azabicyclo[2.2.2]oct-3-yl]-10-[(6-chloro-3-methoxy-2′-methyl-[1,1′-biphenyl]-4-yl)carbonyl]-10,11-dihydro-5H-pyrrolo[2,1-c][1,4]benzodiazepine-3-carboxamide], which inhibition at 0.1 µM is on record?
**A.** Its inhibition at 0.1 µM is 73%.

**Q.** Which inhibition at 0.1 µM does the source give for `COc1cc(C(=O)N2Cc3ccc(C(=O)N4CCC(N5CCCC5)CC4)n3Cc3ccccc32)ccc1-n1c(C)ccc1C` [Example 313, {10-[4-(2,5-Dimethyl-1H-pyrrol-1-yl)-3-methoxybenzoyl]-10,11-dihydro-5H-pyrrolo[2,1-c][1,4]benzodiazepin-3-yl}[4-(1-pyrrolidinyl)-1-piperidinyl]methanone] here?
**A.** Its inhibition at 0.1 µM is 32%.

**Q.** With `COc1cc(C(=O)N2Cc3ccc(C(=O)NCCCN(C)C)n3Cc3ccccc32)ccc1-n1c(C)ccc1C` [Example 308, N-[3-(Dimethylamino)propyl]-10-[4-(2,5-dimethyl-1H-pyrrol-1-yl)-3-methoxybenzoyl]-10,11-dihydro-5H-pyrrolo[2,1-c][1,4]benzodiazepine-3-carboxamide] as the compound, how does the inhibition at 0.1 µM read?
**A.** Its inhibition at 0.1 µM is 7%.

**Q.** How did the inhibition at 0.1 µM turn out when `Cc1ccccc1-c1ccc(C(=O)N2Cc3ccc(C(=O)N4CCN(C)CC4)n3Cc3ccccc32)cc1C` [Example 50, {10-[(2,2′-Dimethyl[1,1′-biphenyl]-4-yl)carbonyl]-10,11-dihydro-5H-pyrrolo[2,1-c][1,4]benzodiazepin-3-yl}(4-methyl-1-piperazinyl)methanone] was run?
**A.** Its inhibition at 0.1 µM is 95%.
